Source: ChEMBL document CHEMBL5244262, “Discovery and optimization of benzenesulfonamides-based hepatitis B virus capsid modulators via contemporary medicinal chemistry strategies” (Eur J Med Chem, 2020)

Tests used:
Hepatitis B virus [1] = experiment: Antiviral activity against Hepatitis B virus infected in HePAD38 cells; format: functional, organism-based
[2] = Cytotoxicity against human HePAD38 cells; format: toxicity, cell-based
[3] = Selectivity index, ratio of CC50 for human HePAD38 cells to EC50 for antiviral activity against Hepatitis B virus infected in HePAD38 cells; format: toxicity, cell-based; conditions: read-out: Ratio CC50/EC50
Hepatitis B virus [4] = experiment: Antiviral activity against Hepatitis B virus assessed as inhibition of nucleocapsid assembly; format: functional, organism-based
[5] = Cytotoxicity against human HepG2.2.15 cells; format: toxicity, cell-based, HepG2 2.2.15
Hepatitis B virus [6] = experiment: Antiviral activity against Hepatitis B virus infected in HepG2.2.15 cells; format: functional, organism-based
Hepatitis B virus [7] = experiment: Ratio of EC50 for antiviral activity against HBV harboring core protein V124F mutant to EC50 for antiviral activity against HBV harboring wild type core protein; format: functional
Hepatitis B virus [8] = experiment: Ratio of EC50 for antiviral activity against HBV harboring core protein P25S mutant to EC50 for antiviral activity against HBV harboring wild type core protein; format: functional
Hepatitis B virus [9] = experiment: Antiviral activity against HBV harboring core protein V124F mutant; format: functional, organism-based
Hepatitis B virus [10] = experiment: Ratio of EC50 for antiviral activity against HBV harboring core protein P25G mutant to EC50 for antiviral activity against HBV harboring wild type core protein; format: functional
Hepatitis B virus [11] = experiment: Antiviral activity against HBV harboring core protein P25G mutant; format: functional, organism-based
Hepatitis B virus [12] = experiment: Antiviral activity against HBV harboring core protein P25S mutant; format: functional, organism-based
Hepatitis B virus [13] = experiment: Ratio of EC50 for antiviral activity against HBV harboring core protein T33N mutant to EC50 for antiviral activity against HBV harboring wild type core protein; format: functional
Hepatitis B virus [14] = experiment: Ratio of EC50 for antiviral activity against HBV harboring core protein P25A mutant to EC50 for antiviral activity against HBV harboring wild type core protein; format: functional
Hepatitis B virus [15] = experiment: Antiviral activity against HBV harboring core protein T33S mutant; format: functional, organism-based
Hepatitis B virus [16] = experiment: Antiviral activity against HBV harboring wild type core protein; format: functional, organism-based
Hepatitis B virus [17] = experiment: Antiviral activity against HBV harboring core protein T33Q mutant; format: functional, organism-based
Hepatitis B virus [18] = experiment: Antiviral activity against HBV harboring core protein V124I mutant; format: functional, organism-based
Hepatitis B virus [19] = experiment: Antiviral activity against HBV harboring core protein T33N mutant; format: functional, organism-based
Hepatitis B virus [20] = experiment: Antiviral activity against HBV harboring core protein P25A mutant; format: functional, organism-based
Hepatitis B virus [21] = experiment: Ratio of EC50 for antiviral activity against HBV harboring core protein T33S mutant to EC50 for antiviral activity against HBV harboring wild type core protein; format: functional
Hepatitis B virus [22] = experiment: Ratio of EC50 for antiviral activity against HBV harboring core protein V124I mutant to EC50 for antiviral activity against HBV harboring wild type core protein; format: functional
Hepatitis B virus [23] = experiment: Ratio of EC50 for antiviral activity against HBV harboring core protein T33Q mutant to EC50 for antiviral activity against HBV harboring wild type core protein; format: functional
[24] = Half life in human plasma; format: ADME, cell-free
Hepatitis B virus [25] = experiment: Antiviral activity against Hepatitis B virus infected in HePAD38 cells assessed as reduction in HBeAg production; format: functional, organism-based
[26] = Cytotoxicity in human primary hepatocytes; format: toxicity, cell-based, Hepatocyte
[27] = Oral bioavailability in CD1 mouse; format: ADME, organism-based; conditions: in vivo
[28] = Half life in dog plasma; format: ADME, cell-free, Canis lupus familiaris
[29] = Half life in mouse plasma; format: ADME, cell-free
[30] = Cytotoxicity against mouse AML12HBV10; format: toxicity, cell-based; conditions: AML12HBV10 cells
Hepatitis B virus [31] = experiment: Antiviral activity against Hepatitis B virus infected in HepDE19 cells; format: functional, organism-based
Hepatitis B virus [32] = experiment: Antiviral activity against Hepatitis B virus infected in HepBHAe82 cells; format: functional, organism-based
Hepatitis B virus [33] = experiment: Antiviral activity against Hepatitis B virus infected in primary hepatocytes; format: functional, organism-based; conditions: Hepatocyte
Hepatitis B virus [34] = experiment: Antiviral activity against Hepatitis B virus infected in AML12HBV10 cells; format: functional, organism-based
[35] = Cytotoxicity against human HepDE19 cells; format: functional
[36] = Cytotoxicity against human HepBHAe82 cells; format: toxicity, cell-based
Hepatitis B virus [37] = experiment: Antiviral activity against Hepatitis B virus harboring rtN236T transfected in HepG2 cells; format: functional, organism-based
Hepatitis B virus [38] = experiment: Antiviral activity against Hepatitis B virus harboring rtL180M/M204V/N236T transfected in HepG2 cells; format: functional, organism-based
Hepatitis B virus [39] = experiment: Antiviral activity against Hepatitis B virus harboring rtL180M/M204V transfected in HepG2 cells; format: functional, organism-based
Hepatitis B virus [40] = experiment: Antiviral activity against Hepatitis B virus harboring rtA181V/N236T transfected in HepG2 cells; format: functional, organism-based
Hepatitis B virus [41] = experiment: Antiviral activity against Hepatitis B virus harboring rtA181V transfected in HepG2 cells; format: functional, organism-based
[42] = Oral bioavailability in mouse; format: ADME, organism-based; conditions: in vivo
Hepatitis B virus [43] = experiment: Antiviral activity against Hepatitis B virus infected in HepDES19 cells; format: functional, organism-based
[44] = Cytotoxicity against human HepDES19 cells; format: toxicity, cell-based

Cn1cc2c(c1C(=O)Nc1cc(F)c(F)c(F)c1)OCC1CN(C(=O)c3ncco3)CC1NS2(=O)=O (stereo unspecified)
EC50 (Hepatitis B virus [1]): < 1 µM

O=C(Nc1cc(F)c(F)c(F)c1)c1ccc(F)c(S(=O)(=O)NC2CCC(O)CC2)c1 (stereo unspecified)
CC50 [2]: 10.7 µM | selectivity ratio [3]: 42.7 | EC50 (Hepatitis B virus [1]): 0.25 µM

CC(NS(=O)(=O)c1c2ncccc2c(C(=O)Nc2ccc(F)c(F)c2)n1C)C(F)(F)F (stereo unspecified)
IC50 (Hepatitis B virus [4]): < 1 µM | CC50 [5]: > 30 µM | EC50 (Hepatitis B virus [6]): 0.0001 µM

O=C(Nc1cc(F)c(F)c(F)c1)c1ccc(F)c(S(=O)(=O)N2CC3CC(O)CC3C2)c1 (stereo unspecified)
CC50 [2]: 22.2 µM | selectivity ratio [3]: 74.1 | EC50 (Hepatitis B virus [1]): 0.33 µM

COC(=O)C1=C(CN2CC(F)(F)C[C@H]2C(=O)O)NC(c2nccs2)=N[C@H]1c1ccc(F)cc1Cl
Ratio (Hepatitis B virus [7]): 11.9 | Ratio (Hepatitis B virus [8]): 9.9 | EC50 (Hepatitis B virus [9]): 1.09 µM | Ratio (Hepatitis B virus [10]): 15.2 | EC50 (Hepatitis B virus [11]): 1.38 µM | EC50 (Hepatitis B virus [12]): 0.902 µM | Ratio (Hepatitis B virus [13]): 38.1 | Ratio (Hepatitis B virus [14]): 8.1 | EC50 (Hepatitis B virus [15]): 0.162 µM | EC50 (Hepatitis B virus [16]): 0.091 µM | EC50 (Hepatitis B virus [17]): 1.97 µM | EC50 (Hepatitis B virus [18]): 0.009 µM | EC50 (Hepatitis B virus [19]): 3.47 µM | EC50 (Hepatitis B virus [20]): 0.735 µM | Ratio (Hepatitis B virus [21]): 1.8 | Ratio (Hepatitis B virus [22]): 0.1 | Ratio (Hepatitis B virus [23]): 21.7

C#CCNC(=O)C(=O)c1c(C)c(C(=O)Nc2ccc(F)c(F)c2)n(C)c1C
half-life [24]: > 24 h | IC50 (Hepatitis B virus [25]): 0.003 µM | CC50 [26]: > 10 µM | bioavailability [27]: > 100% | half-life [28]: > 24 h | half-life [29]: > 24 h

CC[C@@H](C)NS(=O)(=O)c1ccc(F)c(C(=O)Nc2ccc(F)c(F)c2)c1
CC50 [5]: > 10 µM | CC50 [30]: > 10 µM | EC50 (Hepatitis B virus [31]): 0.08 µM | EC90 (Hepatitis B virus [31]): 0.33 µM | EC50 (Hepatitis B virus [32]): 0.08 µM | EC90 (Hepatitis B virus [32]): 0.33 µM | EC50 (Hepatitis B virus [6]): 0.08 µM | EC90 (Hepatitis B virus [6]): 0.33 µM | EC50 (Hepatitis B virus [33]): 0.08 µM | EC90 (Hepatitis B virus [33]): 0.33 µM | EC50 (Hepatitis B virus [34]): 0.08 µM | EC90 (Hepatitis B virus [34]): 0.33 µM | CC50 [35]: > 10 µM | CC50 [26]: > 10 µM | CC50 [36]: > 10 µM

O=C1CCN(S(=O)(=O)c2cc(C(=O)Nc3cc(F)c(F)c(F)c3)ccc2F)CC1
CC50 [2]: 7.41 µM | selectivity ratio [3]: 24.7 | EC50 (Hepatitis B virus [1]): 0.3 µM

O=C(Nc1cc(F)c(F)c(F)c1)c1ccc(F)c(S(=O)(=O)N2CCC(O)CC2)c1
Ratio (Hepatitis B virus [7]): 0.7 | EC50 (Hepatitis B virus [37]): 0.82 µM | Ratio (Hepatitis B virus [8]): 2.4 | EC50 (Hepatitis B virus [9]): 0.289 µM | CC50 [2]: 5.14 µM | Ratio (Hepatitis B virus [10]): 12.2 | EC50 (Hepatitis B virus [38]): 0.82 µM | EC50 (Hepatitis B virus [11]): 4.75 µM | EC50 (Hepatitis B virus [39]): 0.82 µM | EC50 (Hepatitis B virus [40]): 0.82 µM | EC50 (Hepatitis B virus [12]): 0.93 µM | EC50 (Hepatitis B virus [6]): 0.4 µM | Ratio (Hepatitis B virus [13]): >13 | Ratio (Hepatitis B virus [14]): 2.3 | selectivity ratio [3]: 15.6 | EC50 (Hepatitis B virus [41]): 0.82 µM | EC50 (Hepatitis B virus [15]): 0.878 µM | EC50 (Hepatitis B virus [16]): 0.39 µM | EC50 (Hepatitis B virus [1]): 0.33 µM | EC50 (Hepatitis B virus [17]): > 5 µM | EC50 (Hepatitis B virus [18]): 0.042 µM | bioavailability [42]: ≥ 84.6% | EC50 (Hepatitis B virus [19]): > 5 µM | EC50 (Hepatitis B virus [20]): 0.895 µM | Ratio (Hepatitis B virus [21]): 2.3 | Ratio (Hepatitis B virus [22]): 0.1 | Ratio (Hepatitis B virus [23]): >13

O=C1CC2CN(S(=O)(=O)c3cc(C(=O)Nc4cc(F)c(F)c(F)c4)ccc3F)CC2C1 (stereo unspecified)
CC50 [2]: 18.7 µM | selectivity ratio [3]: 48 | EC50 (Hepatitis B virus [1]): 0.39 µM

O=C(Nc1cc(F)c(F)c(F)c1)c1ccc(F)c(S(=O)(=O)N2CCC(=NO)CC2)c1
CC50 [2]: 7.41 µM | selectivity ratio [3]: 35.3 | EC50 (Hepatitis B virus [1]): 0.21 µM

COC(=O)C1=C(C)NC(c2ncc(F)cc2F)=N[C@H]1c1ccc(F)cc1Cl
Ratio (Hepatitis B virus [7]): 15.7 | Ratio (Hepatitis B virus [8]): 28.7 | EC50 (Hepatitis B virus [9]): 2.33 µM | Ratio (Hepatitis B virus [10]): >67 | EC50 (Hepatitis B virus [11]): > 10 µM | EC50 (Hepatitis B virus [12]): 4.28 µM | Ratio (Hepatitis B virus [13]): >67 | Ratio (Hepatitis B virus [14]): 23.2 | EC50 (Hepatitis B virus [15]): 0.451 µM | EC50 (Hepatitis B virus [16]): 0.149 µM | EC50 (Hepatitis B virus [17]): 3.72 µM | EC50 (Hepatitis B virus [18]): 0.013 µM | EC50 (Hepatitis B virus [19]): > 10 µM | EC50 (Hepatitis B virus [20]): 3.45 µM | Ratio (Hepatitis B virus [21]): 3 | Ratio (Hepatitis B virus [22]): 0.09 | Ratio (Hepatitis B virus [23]): 25

CCC(C)NS(=O)(=O)c1ccc(F)c(C(=O)Nc2ccc(F)c(F)c2)c1 (stereo unspecified)
CC50 [30]: > 50 µM | IC50 (Hepatitis B virus [34]): 0.3 µM | IC50 (Hepatitis B virus [43]): 0.1 µM | CC50 [44]: > 50 µM

O=C(Nc1cc(F)c(F)c(F)c1)c1ccc(F)c(S(=O)(=O)N2C[C@H]3CC[C@@H]2CC3=O)c1
CC50 [2]: 7.41 µM | selectivity ratio [3]: 33.7 | EC50 (Hepatitis B virus [1]): 0.22 µM

O=C(Nc1cc(F)c(F)c(F)c1)c1ccc(F)c(S(=O)(=O)N2C[C@H]3CC[C@@H]2CC3O)c1 (stereo partly specified)
CC50 [2]: 10.7 µM | selectivity ratio [3]: 30.5 | EC50 (Hepatitis B virus [1]): 0.35 µM
